Converted amounts (≈) assume the structure as drawn. Read-outs that look alike come from different tables or passages of the source.
What was measured:
physchem [1] = format: physicochemical; settings: deionized water
[2] = Hygroscopicity by gravimetric moisture absorption; format: physicochemical; settings: for water absorbed (hygroscopicity): relative air humidity of 90%
Description: Samples were also studied using the following methods: polarization microscopy (Leica DMRB Polarized Microscope, resolution of 1600×1200)—to confirm crystallinity, ion chromatography—to confirm anion and cation stoichiometric proportion, differential scanning calorimetry (DSC) and thermogravimetric analysis (TGA)—to confirm composition and study of temperature stability of samples; ^1H NMR (500 MHz Bruker AVANCE 500.13 MHz, solvent DMSO-d6)—to confirm structure, assess purity and content of organic solvents; gravimetric moisture absorption—to assess hygroscopicity. DSC was carried out using Mettler 822e DSC apparatus. The measuring system was calibrated according to ISO 11357-1 standard based on standard substances phase changes (C6H12; Hg; benzoic acid; Ga; KNO3; In; Sn; Bi; CsCl; purity grade 99.99%). Temperature calibration regular error (determined based on In) is 0.1°. Samples were tested in standard aluminum cells in the artificial air flow at a temperature range of 30-300° C. with heating speed of 10°/min. TG measurements were taken using Mettler 851e SDTA/TGA TG analyzer. The apparatus was calibrated using standard substances melting points (Ag; Al; Bi; In; Sn; purity grade of 99.99%). Weighing error is NMT 0.1% (determined using CaC2O4·2H2O standard). The test was carried out in a standard open aluminum container in the artificial air flow at a temperature range of 30-150° C. with heating speed of 10°/min. To avoid dehydration, the material was not exposed to mechanical treatment before taking measurements.

[3] = for pH: equilibrium solubility test in water; for Crystallinity in 24 h: solid in water, equilibrium solubility test
in vivo = experiment: in vivo; set-up: species or system C57BL/6 line mice
Protocol: FIGS. 52A-52B. […] The mean values were determined for each time point on the basis of the individual data obtained from three animals.
The results of the study are given in FIG. 52 and in Tables 14 and 15.

[4] = Solubility of the free base in various solvents; format: physicochemical; settings: thermodynamic from solid
Protocol: At the first stage the initial base was tested for solubility in selected organic solvents. The maximum selected solvent volume used in this test was 1.25 mL per 1 mg of base. Low toxicity (Class 3), low-boiling (Tboiling<100° C.), polar, solvents. in which the base was soluble at no less than 10 mg/mL were selected for further studies.

[5] = Stability of polymorph modifications, suspending in acetone for 6 days; format: physicochemical; settings: for crystalline structure after suspending in acetone: 6 days; for Crystallinity in 6 days: suspending in acetone for 6 days, room temperature
Protocol: Crystallinity of all samples obtained was studied using the method of X-ray powder diffraction (to study the crystallinity structure). Diffraction patterns were obtained at a temperature of 25° C. […] Survey step 0.02° 2θ, angle range 3-45° 2θ. Diffraction patterns obtained were studied in detail using X'Pert HighScore Plus software package.

[6] = Dissolution kinetics (USP Apparatus 1 Basket Method); format: physicochemical; settings: for pH of prepared solution: 780 minutes after beginning
Protocol: During further studies of the polymorphous modifications of the methanesulfonic acid salt of 3-(1,2,4-triazolo[4,3-a]pyridine-3-ylethynyl)-4-methyl-N-(4-((4-methylpiperazine-1-yl)methyl)-3-trifluoromethylphenyl)benzamide, the kinetics of dissolution of the free base and the two methanesulfonic acid salt form polymorphous modifications was studied. Dissolution kinetics studies were performed using USP Apparatus 1 Basket Method (USP40, General Chapter <711>. Dissolution), dissolution media volume—700 mL, temperature—37±1° C. paddle stirrers' rotation rate—100 rpm. The test sample dissolution rate was calculated as an average of six repeats. Distilled water was used as the dissolution medium for the polymorphous modifications of 3-(1,2,4-triazolo[4,3-a]pyridine-3-ylethynyl)-4-methyl-N-(4-((4-methylpiperazine-1-yl)methyl)-3-trifluoromethylphenyl)benzamide methanesulfonic acid salt and, and a solution of 12.2 mL of methanesulfonic acid in 500 mL of water was used as the dissolution medium for the free base. Test portions containing 100 mg of 3-(1,2,4-triazolo[4,3-a]pyridine-3-ylethynyl)-4-methyl-N-(4-((4-methylpiperazine-1-yl)methyl)-3-trifluoromethylphenyl)benzamide or 118 mg of 3-(1,2,4-triazolo[4,3-a]pyridine-3-ylethynyl)-4-methyl-N-(4-((4-methylpiperazine-1-yl)methyl)-3-trifluoromethylphenyl)benzamide methanesulfonic acid salt (100 mg calculated as free base) were used for dissolution. In 780 minutes (13 hours) after the beginning of the test, pH of prepared solutions was measured.

physchem [7] = settings: deionized water, thermodynamic from solid, Equilibrium solubility, HPLC analysis
pKa of the base = format: physicochemical
[8] = tested on: Sca1+ marrow cells, expressing p185-T315I^BCR/ABL; experiment: BCR/ABL-induced chronic myelogenous leukemia model; format: in vivo, C57BL/6N line mice; settings: oral, 50 mg/kg free base; control 55.0 ± 6.3
Protocol: To assess the efficacy of the free base and methanesulfonic acid salt of 3-(1,2,4-triazolo[4,3-a]pyridine-3-ylethynyl)-4-methyl-N-(4-((4-methylpiperazine-1-yl)methyl)-3-trifluoromethylphenyl)benzamide for treating chronic myelogenous leukemia (CML) studies of the compounds' activity on the BCR/ABL-induced CML-like disease in mice were conducted. In the study C57BL/6N line mice were used. […] The efficacy of therapy with 3-(1,2,4-triazolo[4,3-a]pyridine-3-ylethynyl)-4-methyl-N-(4-((4-methylpiperazine-1-yl)methyl)-3-trifluoromethylphenyl)benzamide administered orally as a free base and methanesulfonic acid salt was studied.

CD-1 line mice males = experiment: Acute toxicity, oral route, mice
Description: (§1) For each drug dose study a group of six animals was used. The study included control groups with the same animal headcount, which received equivalent solvent doses of a 0.5% water solution of methylcellulose. The follow-up period was 28 days. Lab mouse survivability analysis allowed carrying out Bliss analysis and determining the lethal doses of the studied drugs.

[9] = Acute toxicity, oral route, mice; settings: male, CD-1, mouse, in vivo, po, LD50, oral, male CD-1 mice; dose of the substance administered
Description: as §1

[10] = Stability, 7 days at T = 60° C.; format: physicochemical; settings: for Crystallinity in 7 days / Relative peak area, in 7 days: 7 days at T = 60° C.; for Relative peak area, initial: before storage; for content of impurities: kept seven days at 60° C.
[11] = mouse, free base 50 mg/kg, single oral, C57BL/6 mice, plasma
[12] = oral, male CD-1 mice, dose of the substance administered
[13] = mesylate polymorphous modification I 59 mg/kg (50 mg/kg as free base), single oral, C57BL/6 mice

Cc1ccc(C(=O)Nc2ccc(CN3CCN(C)CC3)c(C(F)(F)F)c2)cc1C#Cc1nnc2ccccn12.Cl [HAL-G-196-2]
Apparent solubility (physchem [1]; RT): >29000 µg/mL | sample hygroscopicity (water sorption and desorption) ([2]; gravimetric moisture absorption): desorbed and sorbed water, the volume of which corresponded to a dihydrate

Cc1ccc(C(=O)Nc2ccc(CN3CCN(C)CC3)c(C(F)(F)F)c2)cc1C#Cc1nnc2ccccn12 [free base, 3-(1,2,4-triazolo[4,3-a]pyridine-3-ylethynyl)-4-methyl-N-(4-((4-methylpiperazin-1-yl)methyl)-3-trifluoromethylphenyl)benzamide]
pH [3]: 5.3 | Crystallinity in 24 h [3]: Cryst. | AUC0-24/24 (in vivo; free base 50 mg/kg, single oral, C57BL/6 mice, plasma): 452 ng/mL | AUC(0-inf) (in vivo; [11]): 10900 ng·h/mL | half-life (in vivo; [11]): 2.4 h | AUC(0-t) (in vivo; mouse, free base 50 mg/kg, single oral, C57BL/6 mice, plasma, read-out: AUC0-24): 10900 ng·h/mL | Cmax (in vivo; mouse, free base 50 mg/kg, single oral, C57BL/6 mice, plasma, read-out: Cmax): 1490 ng/mL | Tmax (in vivo; mouse, free base 50 mg/kg, single oral, C57BL/6 mice, plasma, read-out: Tmax): 2 h | solubility ([4]; organic solvent or mixture, 2-methyltetrahydrofuran, 3.7 mg in 0.6 mL, 50 °C): > 800 µg/mL | solubility ([4]; organic solvent or mixture, Acetone, 3.4 mg in 0.3 mL, 50 °C): > 800 µg/mL | solubility ([4]; organic solvent or mixture, Acetonitrile, 3.5 mg in 4.0 mL, 50 °C): < 800 µg/mL | solubility ([4]; organic solvent or mixture, Cyclohexane, 4.3 mg in 4.0 mL, 50 °C): < 800 µg/mL | solubility ([4]; organic solvent or mixture, Dichloromethane, 3.7 mg in 0.4 mL, 50 °C): > 800 µg/mL | solubility ([4]; organic solvent or mixture, Dimethyl sulfoxide, 3.8 mg in 0.1 mL, RT): > 800 µg/mL | solubility ([4]; organic solvent or mixture, Dimethylformamide, 4.7 mg in 0.1 mL, RT): > 800 µg/mL | solubility ([4]; organic solvent or mixture, Ethanol, 4.7 mg in 0.3 mL, 50 °C): > 800 µg/mL | solubility ([4]; organic solvent or mixture, Ethyl acetate, 3.9 mg in 1.3 mL, 50 °C): > 800 µg/mL | solubility ([4]; organic solvent or mixture, Heptane, 3.3 mg in 4.0 mL, 50 °C): < 800 µg/mL | solubility ([4]; organic solvent or mixture, Isopropanol, 3.6 mg in 0.4 mL, 50 °C): > 800 µg/mL | solubility ([4]; organic solvent or mixture, Isopropyl acetate, 4.0 mg in 4.0 mL, 50 °C): < 800 µg/mL | solubility ([4]; organic solvent or mixture, Methanol, 4.0 mg in 0.1 mL, 50 °C): > 800 µg/mL | solubility ([4]; organic solvent or mixture, Methyl ethyl ketone, 4.8 mg in 0.4 mL, 50 °C): > 800 µg/mL | solubility ([4]; organic solvent or mixture, Methyl isobutyl ketone, 4.1 mg in 0.6 mL, 50 °C): > 800 µg/mL | solubility ([4]; organic solvent or mixture, Methyl tert-butyl ether, 4.7 mg in 4.0 mL, 50 °C): < 800 µg/mL | solubility ([4]; organic solvent or mixture, N-methylpyrrolidone, 3.7 mg in 0.1 mL, RT): > 800 µg/mL | solubility ([4]; organic solvent or mixture, Tetrahydrofuran, 3.6 mg in 0.1 mL, 50 °C): > 800 µg/mL | solubility ([4]; organic solvent or mixture, Toluene, 3.4 mg in 4.0 mL, 50 °C): < 800 µg/mL | solubility ([4]; organic solvent or mixture, n-Butanol, 3.6 mg in 0.2 mL, 50 °C): > 800 µg/mL | solubility ([4]; Water, 4.6 mg in 4.0 mL, 50 °C): < 800 µg/mL | solubility (physchem [1]; water, read-out: Apparent solubility): < 1000 µg/mL | crystalline structure after suspending in acetone [5]: changes | Crystallinity in 6 days [5]: Form II | water absorbed (hygroscopicity) [2]: less than three mass percent of water | pH of prepared solution ([6]; medium 12.2 mL methanesulfonic acid in 500 mL water): 4.02 | share dissolved ([6]; solution containing 12.2 mL methanesulfonic acid, 780 minutes (13 hours)): less than 90% | solubility thermodynamic (physchem [7]): 0.23 µg/mL (≈ 0.432 µM) | pKa (pKa of the base): ~6.4 | Average life [8]: 93.0 ± 6.1 days | Dose without observable effects (CD-1 line mice males; male, CD-1, mouse, in vivo, po, 28 days): 160 mg/kg | signs of animal intoxication (CD-1 line mice males; mouse, in vivo, po): dyspnea, hypodynamia, tumbled fur, diarrhea, bloating, in some animals—focal alopecia | LD10 (CD-1 line mice males; [12]): 504 mg/kg | LD90 (CD-1 line mice males; [12]): 850 mg/kg | LD50 at 28 days [9]: 677 ± 55 mg/kg | Crystallinity in 7 days [10]: Form I | Relative peak area, in 7 days [10]: 99.7% | Relative peak area, initial [10]: 99.7% | content of impurities [10]: remains constant

CS(=O)(=O)O.Cc1ccc(C(=O)Nc2ccc(CN3CCN(C)CC3)c(C(F)(F)F)c2)cc1C#Cc1nnc2ccccn12 [methanesulfonic acid salt (polymorphous modification I)] [3-(1,2,4-triazolo[4,3-a]pyridine-3-ylethynyl)-4-methyl-N-(4-((4-methylpiperazin-1-yl)methyl)-3-trifluoromethylphenyl)benzamide mono methanesulfonic acid salt, polymorphous modification I]
AUC0-24 (in vivo; [13]): 11,933 ngh/mL | AUC0-24/24 (in vivo; [13]): 497 ng/mL | AUC0-∞ (in vivo; [13]): 12,103 ng · h/mL | Cmax (in vivo; [13]): 1,099 ng/mL | T1/2 (in vivo; [13]): 3.8 h | Tmax (in vivo; [13]): 4 h | pH of prepared solution ([6]; medium distilled water): 5.04

CS(=O)(=O)O.Cc1ccc(C(=O)Nc2ccc(CN3CCN(C)CC3)c(C(F)(F)F)c2)cc1C#Cc1nnc2ccccn12 [methanesulfonic acid salt (polymorphous modification II)] [3-(1,2,4-triazolo[4,3-a]pyridine-3-ylethynyl)-4-methyl-N-(4-((4-methylpiperazin-1-yl)methyl)-3-trifluoromethylphenyl)benzamide mono methanesulfonic acid salt, polymorphous modification II]
differences in all pharmacokinetic parameters studied versus polymorphous modification I (in vivo; mouse, in vivo): No statistically true differences in all pharmacokinetic parameters studied were revealed after administration of the salt form as polymorphous modification II (p < 0.05). | pH of prepared solution ([6]; medium distilled water): 4.95

Cc1ccc(C(=O)Nc2ccc(CN3CCN(C)CC3)c(C(F)(F)F)c2)cc1C#Cc1nnc2ccccn12.Cc1ccc(S(=O)(=O)O)cc1 [HAL-G-196-24]
pH [3]: 3.5 | Crystallinity in 24 h [3]: Cryst. | crystalline structure after suspending in acetone [5]: remained unchanged | water absorbed (hygroscopicity) [2]: less than four mass percent of water | Crystallinity in 7 days [10]: Cryst. | Relative peak area, in 7 days [10]: 99.9% | Relative peak area, initial [10]: 99.8% | content of impurities [10]: remained constant

Br.Cc1ccc(C(=O)Nc2ccc(CN3CCN(C)CC3)c(C(F)(F)F)c2)cc1C#Cc1nnc2ccccn12 [HAL-G-196-7]
water absorbed (hygroscopicity) [2]: more than ten mass percent of water and thawed in the air

Cc1ccc(C(=O)Nc2ccc(CN3CCN(C)CC3)c(C(F)(F)F)c2)cc1C#Cc1nnc2ccccn12.Cl [HAL-G-196-3]
pH [3]: 4.0 | Crystallinity in 24 h [3]: Amorphous | crystalline structure after suspending in acetone [5]: remained unchanged | Crystallinity in 6 days [5]: Form II | water absorbed (hygroscopicity) [2]: less than 8 mass percent | Crystallinity in 7 days [10]: Form II | Relative peak area, in 7 days [10]: 99.9% | Relative peak area, initial [10]: 99.9% | content of impurities [10]: remained constant

Cc1ccc(C(=O)Nc2ccc(CN3CCN(C)CC3)c(C(F)(F)F)c2)cc1C#Cc1nnc2ccccn12.O=C(O)/C=C/C(=O)O [HAL-G-196-29]
pH [3]: 4.2 | Crystallinity in 24 h [3]: Cryst. | crystalline structure after suspending in acetone [5]: remained unchanged | Crystallinity in 6 days [5]: Cryst. | water absorbed (hygroscopicity) [2]: less than four mass percent of water | Crystallinity in 7 days [10]: Cryst. | Relative peak area, in 7 days [10]: 99.9% | Relative peak area, initial [10]: 99.8% | content of impurities [10]: remained constant
